How the values were obtained:
[1] = Ames test for potential genotoxicity
[2] = system: Inositol polyphosphate kinase-like protein (IPPK); test: SILAC pull-down with resin-bound 13, competition by compound 2; assay type: binding, Trypanosoma brucei; settings: procyclic lysate; compound 2 10 μM vs DMSO; mean of three experiments
Protocol: (§1) Chemical proteomic studies were carried out by immobilizing an analogue of compound 2 (probe 13; Figure 3A and Scheme 4) to magnetic beads via a polyethyleneglycol (PEG) linker. Appropriate attachment sites for the PEG linker were informed by the established structure–activity relationships within this series, and an advanced intermediate toward the final derivatized compound was screened against both bloodstream and procyclic forms of T. brucei to ensure that it retained potency. The analogue was immobilized by attachment to NHS-ester-activated paramagnetic beads. Activated beads were then incubated in SILAC (stable isotope labeling by amino acids in cell culture)-labeled T. brucei procyclic whole-cell lysates in the presence or absence of compound 2 (10 μM) with either “light-“ or “heavy”-labeled lysate. After combining the eluates from the beads and performing proteomic analyses, proteins that bound specifically to the diaminothiazole pharmacophore were distinguished from proteins that bound non-specifically to the beads by virtue of compound 2:DMSO tryptic peptide isotope ratios. As a result of these studies, four kinases and a cyclin were identified as specific binders of the compound 2-derivatized beads (Figure 3B and Table S11). It should be noted that of the four kinases identified, only CRK12 has been established as essential for survival of T. brucei.[14] […]
(§2) Trypanosoma brucei procyclic form parasites were grown in SDM-79 media (SILAC SDM-79, 2 g/L NaHCO3, 7.5 mg haemin, 1% glutamax and 15% dialysed FBS) with either light or heavy isotopes for 6-9 divisions (6 days) to a density of ~3 x 10^7 cells/ml. A total of 3 x10^8 cells were washed thrice with PBS. Buffer 1 (0.1 mM tosyl phenylalanyl chloromethyl ketone, 1 µg/ml leupeptin, 1 mM aprotinin, 1 mM phenylmethylsulfonyl fluoride, 1x Roche Complete protease inhibitors) was added to the parasite pellet, followed by Buffer 2 (100 mM Tris pH 7.5, 10% glycerol, 300 mM NaCl, 3 mM MgCl2, 1.6% IGEPAL® CA-630, 2 mM dithiothreitol) and incubated at 4 °C for 20 min. Lysates were centrifuged at 100,000 g at 4 °C for 1 h. Beads (blank and compound-bound) were washed twice with water and twice with lysis buffer (Buffer 1 and 2). Lysates were incubated with 2 mg blank beads for 30 min at 4 °C. Lysates were then incubated with either 10 µM DDD00770675 or 1% DMSO for 30 min at 4 °C. Finally, lysates were incubated with 2 mg of bound compound for 1 h at 4 °C. Beads were washed three times with wash buffer (0.5% IGEPAL® CA-630, 50 mM Tris pH 8.0, 5 mM EDTA, 1 mg/ml BSA) and twice with Tris-buffered saline. Samples were combined, run 1.5 cm into a Brs-TRIS 10% acrylamide gel and stained with Coomassie quick reagent for 1 h. Gel bands were subjected to in-gel reduction with 10 mM dithiothreitol, alkylation with 50 mM iodoacetamide and digestion with 12.5 μg/mL trypsin (Pierce) for >16h at 37°C. Recovered tryptic peptides were vacuum […]
(§3) 4.5 Peptide fractionation and LC-MS/MS analysis
(§4) Peptides were fractionated using High pH RP Chromatography. A C18 Column from Waters (XBridge peptide BEH, 130Å, 3.5 µm 2.1 x 150 mm, Waters, Ireland) with a guard column (XBridge, C18, 3.5 µm, 2.1 ×10 mm, Waters) were used on a Ultimate 3000 HPLC (Thermo-Scientific). Buffers A and B used for fractionation consist, respectively, of (A) 10mM ammonium formate in milliQ water pH 9.5 and (B) 10 mM ammonium formate, pH 9.5 in 90% acetonitrile. Fractions were collected using a WPS-3000FC auto-sampler (Thermo-Scientific) at 1 min intervals. Column and guard column were equilibrated with 2% Buffer B for twenty minutes at a constant flow rate of 0.2 mL/min. Peptides (190 µL) were injected onto the column, and the separation gradient was started 1 min after sample was loaded onto the column. Peptides were eluted from the column with a gradient of 2% Buffer B to 60% Buffer B in 53 min. The column was washed for 15 min in 100% Buffer B and equilibrated at […]
(§5) 2% Buffer B for 20 min. […]

[3] = system: Cdc-2 related kinase 11 (CRK11); test: as above; assay type: binding, Trypanosoma brucei; settings: procyclic lysate; compound 2 10 μM vs DMSO; mean of three experiments
Protocol: as §1, §2, §3, §4, §5

Cyclin 9 (CYC9) = test: as above; assay type: binding, Trypanosoma brucei; settings: procyclic lysate; compound 2 10 μM vs DMSO; mean of three experiments
Protocol: as §1, §2, §3, §4, §5

MAP kinase 6 (MAPK6) = test: as above; assay type: binding, Trypanosoma brucei; settings: procyclic lysate; compound 2 10 μM vs DMSO; mean of three experiments
Protocol: as §1, §2, §3, §4, §5

MAP kinase 4 (MAPK4) = test: as above; assay type: binding, Trypanosoma brucei; settings: procyclic lysate; compound 2 10 μM vs DMSO; mean of three experiments
Protocol: as §1, §2, §3, §4, §5

[4] = system: Cdc2-related kinase 12 (CRK12); test: as above; assay type: binding, Trypanosoma brucei; settings: procyclic lysate; compound 2 10 μM vs DMSO; mean of three experiments
Protocol: as §1, §2, §3, §4, §5

[5] = system: MAP kinase 9, putative (MAPK9); test: as above; assay type: binding, Trypanosoma brucei; settings: procyclic lysate; compound 2 10 μM vs DMSO; mean of three experiments
Protocol: as §1, §2, §3, §4, §5

[6] = Injection site tolerance in the IM efficacy study in African cattle; assay type: in vivo; settings: free base in Kolliphor EL, NMP, 2-pyrrolidone, 11% water
Protocol: Compound 2 was only partially curative for cattle infected with T. congolense following two doses (1/4 and 2/4 in different treatment arms), administered 15 h apart (Table 4, Table S8, and Figure S9a). The curative regimen aligned well with PK/PD data from mice. However, cattle infected with T. vivax and dosed IM were not cured despite the fact that PK data from some T. vivax-infected cattle (Table 4, Table S9, and Figure S9b) predicted that a dosing at this level should have been curative based on mouse data. This lack of efficacy at exposures expected to deliver a cure is even more perplexing when the metabolism of compound 2 is considered. […] The rate and extent of this metabolism is higher in T. vivax-infected animals compared to those infected with T. congolense (Table S10) for reasons that are not clear.

T. congolense = test: Microcalorimetry of parasite growth; assay type: cell-based, Trypanosoma congolense
Protocol: These observations offer confidence that rats can be used as a model animal in the drug development path going forward prior to studies in cattle. Exposure following IM injection in rats was sufficient to warrant progression to cattle efficacy studies, although the short half-life raised concerns that the required time above the EC99 blood concentration may not be sufficient for cure following a single IM dose at 10 mg/kg.

SMILES	Ames [1]	Log2 ratio DMSO/compound [2]	Log2 ratio DMSO/compound [3]	Log2 ratio DMSO/compound (Cyclin 9 (CYC9))	Log2 ratio DMSO/compound (MAP kinase 6 (MAPK6))	Log2 ratio DMSO/compound (MAP kinase 4 (MAPK4))	Log2 ratio DMSO/compound [4]	Log2 ratio DMSO/compound [5]	Injection site tolerance [6]	Effect on parasites, microcalorimetry (T. congolense; 10 ng/mL)	Effect on parasites, microcalorimetry (T. congolense; 30 ng/mL)	Effect on parasites, microcalorimetry (T. congolense; 100 ng/mL)
CC(C)CS(=O)(=O)N[C@H]1CC[C@H](Nc2nc(N)c(C(=O)c3c(F)cccc3F)s2)CC1 [Compound 1, N-((trans)-4-((4-Amino-5-(2,6-difluorobenzoyl)thiazol-2-yl)amino)cyclohexyl)-2-methylpropane-1-sulfonamide]	negative											
CC(C)CS(=O)(=O)N[C@H]1CC[C@H](Nc2nc(N)c(C(=O)c3c(F)cc(CN(C)C)cc3F)s2)CC1 [Compound 2, N-(trans)-[4-[[4-Amino-5-[4-(dimethylaminomethyl)-2,6-difluoro-benzoyl]thiazol-2-yl]amino]cyclohexyl]-2-methyl-propane-1-sulfonamide]		1.85	3.57	3.16	1.62	2.84	3.47	4.15	injection site tolerance issues	slowed parasite growth	rapid kill	rapid kill

Reference: publication PMC9014415, “Repositioning of a Diaminothiazole Series Confirmed to Target the Cyclin-Dependent Kinase CRK12 for Use in the Treatment of African Animal Trypanosomiasis” (Journal of Medicinal Chemistry, 2022)
